Assay results: the supplement of paper PMC9663587

Legend:
[1] = compound: CCN1CCN(Cc2ccc(Nc3ncc(F)c(-c4cc(F)c5nc(C)n(C(C)C)c5c4)n3)nc2)CC1; experiment: increase in dead-cell fraction, 72 h; higher = more death;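 further: breast cancer cell lines in 384-well plates, stained with Hoechst plus LIVE/DEAD far red dye and imaged, cells above an LDR intensity threshold counted dead, Hoechst-negative corpses included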
[2] = compound: CCc1cnn2c(NCc3ccc[n+]([O-])c3)cc(N3CCCC[C@H]3CCO)nc12; experiment: as above
[3] = compound: T1, CN(C)C/C=C/C(=O)Nc1ccc(C(=O)Nc2cccc(Nc3ncc(Cl)c(-c4c[nH]c5ccccc45)n3)c2)cc1 [THZ1]; experiment: as above
[4] = compound: C=CC(=O)Nc1ccc(C(=O)Nc2[nH]nc3c2CN(C(=O)N[C@H](CN(C)C)c2ccccc2)C3(C)C)cc1 [YKL-5-124]; experiment: as above
[5] = compound: T2, CCOc1cc2ncc(C#N)c(Nc3ccc(OCc4ccccn4)c(Cl)c3)c2cc1NC(=O)/C=C/CN(C)C [Neratinib/HKI272]; experiment: as above
[6] = compound: CN1CC[C@H](c2c(O)cc(O)c3c(=O)cc(-c4ccccc4Cl)oc23)[C@H](O)C1 [Flavopiridol]; experiment: as above
[7] = compound: CC(=O)c1c(C)c2cnc(Nc3ccc(N4CCNCC4)cn3)nc2n(C2CCCC2)c1=O; experiment: as above
[8] = compound: CN(C)C(=O)c1cc2cnc(Nc3ccc(N4CCNCC4)cn3)nc2n1C1CCCC1 [LEE011/Ribociclib]; experiment: as above
[9] = compound: CC(=O)c1c(C)c2cnc(Nc3ccc(N4CCN(CCOCCOCCOCCNC(=O)COc5cccc6c5C(=O)N(C5CCC(=O)NC5=O)C6=O)CC4)cn3)nc2n(C2CCCC2)c1=O [BSJ-03-123]; experiment: as above
[10] = compound: CN(C)C/C=C/C(=O)Nc1ccc(C(=O)N2CCC[C@@H](Nc3ncc(Cl)c(-c4c[nH]c5ccccc45)n3)C2)cc1 [THZ531]; experiment: as above
[11] = compound: T1, THZ1; experiment: GR value, 72 h; higher = faster growth (1 = untreated, <0 = killing);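 further: breast cancer and non-malignant breast epithelial lines, nine half-log doses, viable cells counted by Hoechst and LIVE/DEAD dye imaging versus time-zero plates and DMSO controls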
[12] = compound: T2, Neratinib/HKI272; experiment: as above

Cell Line: MDAMB453
- increase in dead-cell fraction ([1]; 0.001 µM): 0.0151
- increase in dead-cell fraction ([1]; 0.003162 µM): 0.0243
- increase in dead-cell fraction ([1]; 0.01 µM): 0.117
- increase in dead-cell fraction ([1]; 0.03162 µM): 0.134
- increase in dead-cell fraction ([1]; 0.1 µM): 0.124
- increase in dead-cell fraction ([1]; 0.3162 µM): 0.104
- increase in dead-cell fraction ([1]; 1 µM): 0.15
- increase in dead-cell fraction ([1]; 3.162 µM): 0.147
- increase in dead-cell fraction ([1]; 10 µM): 0.626
- increase in dead-cell fraction ([2]; 0.0001 µM): 0.0187
- increase in dead-cell fraction ([2]; 0.0003162 µM): -0.0038
- increase in dead-cell fraction ([2]; 0.001 µM): -0.0082
- increase in dead-cell fraction ([2]; 0.003162 µM): -0.004
- increase in dead-cell fraction ([2]; 0.01 µM): 0.0474
- increase in dead-cell fraction ([2]; 0.03162 µM): 0.251
- increase in dead-cell fraction ([2]; 0.1 µM): 0.309
- increase in dead-cell fraction ([2]; 0.3162 µM): 0.286
- increase in dead-cell fraction ([2]; 1 µM): 0.318
- increase in dead-cell fraction ([3]; 0.0001 µM): 0.0006
- increase in dead-cell fraction ([3]; 0.0003162 µM): -0.0024
- increase in dead-cell fraction ([3]; 0.001 µM): -0.0042
- increase in dead-cell fraction ([3]; 0.003162 µM): 0.0021
- increase in dead-cell fraction ([3]; 0.01 µM): 0.0161
- increase in dead-cell fraction ([3]; 0.03162 µM): 0.0525
- increase in dead-cell fraction ([3]; 0.1 µM): 0.133
- increase in dead-cell fraction ([3]; 0.3162 µM): 0.101
- increase in dead-cell fraction ([3]; 1 µM): 0.122
- increase in dead-cell fraction ([4]; 0.001 µM): 0.007
- increase in dead-cell fraction ([4]; 0.003162 µM): 0.013
- increase in dead-cell fraction ([4]; 0.01 µM): 0.0243
- increase in dead-cell fraction ([4]; 0.03162 µM): 0.0344
- increase in dead-cell fraction ([4]; 0.1 µM): 0.0489
- increase in dead-cell fraction ([4]; 0.3162 µM): 0.033
- increase in dead-cell fraction ([4]; 1 µM): 0.0346
- increase in dead-cell fraction ([4]; 3.162 µM): 0.0296
- increase in dead-cell fraction ([4]; 10 µM): 0.275
- increase in dead-cell fraction ([5]; 0.0003162 µM): 0.0316
- increase in dead-cell fraction ([5]; 0.001 µM): 0.0419
- increase in dead-cell fraction ([5]; 0.003162 µM): 0.0613
- increase in dead-cell fraction ([5]; 0.01 µM): 0.0661
- increase in dead-cell fraction ([5]; 0.03162 µM): 0.119
- increase in dead-cell fraction ([5]; 0.1 µM): 0.106
- increase in dead-cell fraction ([5]; 0.3162 µM): 0.177
- increase in dead-cell fraction ([5]; 1 µM): 0.212
- increase in dead-cell fraction ([5]; 3.162 µM): 0.348
- increase in dead-cell fraction ([6]; 0.0001 µM): -0.0017
- increase in dead-cell fraction ([6]; 0.0003162 µM): -0.0022
- increase in dead-cell fraction ([6]; 0.001 µM): -0.0038
- increase in dead-cell fraction ([6]; 0.003162 µM): -0.0016
- increase in dead-cell fraction ([6]; 0.01 µM): -0.0001
- increase in dead-cell fraction ([6]; 0.03162 µM): -0.0034
- increase in dead-cell fraction ([6]; 0.1 µM): 0.0018
- increase in dead-cell fraction ([6]; 0.3162 µM): 0.0317
- increase in dead-cell fraction ([6]; 1 µM): 0.168
- increase in dead-cell fraction ([7]; 0.0003162 µM): 0.0265
- increase in dead-cell fraction ([7]; 0.001 µM): 0.0374
- increase in dead-cell fraction ([7]; 0.003162 µM): 0.016
- increase in dead-cell fraction ([7]; 0.01 µM): 0.0502
- increase in dead-cell fraction ([7]; 0.03162 µM): 0.0578
- increase in dead-cell fraction ([7]; 0.1 µM): 0.115
- increase in dead-cell fraction ([7]; 0.3162 µM): 0.124
- increase in dead-cell fraction ([7]; 1 µM): 0.123
- increase in dead-cell fraction ([7]; 3.162 µM): 0.117
- increase in dead-cell fraction ([8]; 0.001 µM): 0.0026
- increase in dead-cell fraction ([8]; 0.003162 µM): 0.0128
- increase in dead-cell fraction ([8]; 0.01 µM): 0.0136
- increase in dead-cell fraction ([8]; 0.03162 µM): 0.016
- increase in dead-cell fraction ([8]; 0.1 µM): 0.025
- increase in dead-cell fraction ([8]; 0.3162 µM): 0.0275
- increase in dead-cell fraction ([8]; 1 µM): 0.0212
- increase in dead-cell fraction ([8]; 3.162 µM): 0.0344
- increase in dead-cell fraction ([8]; 10 µM): 0.05
- increase in dead-cell fraction ([9]; 0.001 µM): -0.0008
- increase in dead-cell fraction ([9]; 0.003162 µM): -0.0002
- increase in dead-cell fraction ([9]; 0.01 µM): -0.0018
- increase in dead-cell fraction ([9]; 0.03162 µM): 0.0081
- increase in dead-cell fraction ([9]; 0.1 µM): 0.0016
- increase in dead-cell fraction ([9]; 0.3162 µM): 0.0031
- increase in dead-cell fraction ([9]; 1 µM): 0.0138
- increase in dead-cell fraction ([9]; 3.162 µM): 0.007
- increase in dead-cell fraction ([9]; 10 µM): 0.0618
- increase in dead-cell fraction ([10]; 0.0001 µM): 0.0012
- increase in dead-cell fraction ([10]; 0.0003162 µM): 0.0037
- increase in dead-cell fraction ([10]; 0.001 µM): 0.0069
- increase in dead-cell fraction ([10]; 0.003162 µM): 0.0027
- increase in dead-cell fraction ([10]; 0.01 µM): 0.0057
- increase in dead-cell fraction ([10]; 0.03162 µM): 0.0394
- increase in dead-cell fraction ([10]; 0.1 µM): 0.16
- increase in dead-cell fraction ([10]; 0.3162 µM): 0.187
- increase in dead-cell fraction ([10]; 1 µM): 0.157
- GR value ([11]; 0.0001 µM): 1 GR
- GR value ([11]; 0.0003162 µM): 0.935 GR
- GR value ([11]; 0.001 µM): 1.04 GR
- GR value ([11]; 0.003162 µM): 0.716 GR
- GR value ([11]; 0.01 µM): 0.61 GR
- GR value ([11]; 0.03162 µM): 0.0146 GR
- GR value ([11]; 0.1 µM): -0.0991 GR
- GR value ([11]; 0.3162 µM): -0.106 GR
- GR value ([11]; 1 µM): -0.277 GR
- GR value ([12]; 0.0003162 µM): 0.988 GR
- GR value ([12]; 0.001 µM): 0.937 GR
- GR value ([12]; 0.003162 µM): 0.825 GR
- GR value ([12]; 0.01 µM): 0.596 GR
- GR value ([12]; 0.03162 µM): 0.44 GR
- GR value ([12]; 0.1 µM): 0.366 GR
- GR value ([12]; 0.3162 µM): 0.139 GR
- GR value ([12]; 1 µM): -0.0602 GR
- GR value ([12]; 3.162 µM): -0.339 GR
